Results taken from patent publication US11771708B2, “Pharmaceutical carriers capable of pH dependent reconstitution and methods for making and using same” (Greenwood Brands, LLC, priority 2020, dated 2023).

Experiment: carrier reorganization in simulated gastric fluid and aspirin partitioning (Examples 2 and 3)
Format: physicochemical
Description: 5 grams of the composition is added to a beaker equipped with a magnetic stirrer and 50 mL of simulated gastric fluid is added with stirring. […] To this material, a 1 N solution of sodium hydroxide is added slowly to bring the pH up to about pH 7 with stirring. Raising the pH to pH 7 gives rise to a change in the carrier in a high pH environment. To this material, a 1 N solution of hydrochloride acid is added slowly until the pH is lowered to the pH of the simulated gastric fluid. It is expected that the carrier will reorganize. […] Thus, a carrier comprising a sufficient amount of a fatty acid in a triglyceride is capable of reorganization and absorption of a BAI from the low pH fluid, here simulated gastric fluid. 5 grams of the composition is added to a beaker equipped with a magnetic stirrer and 50 mL of simulated gastric fluid is added with stirring. […] To this material, a 1 N solution of sodium hydroxide is added slowly to bring the pH up to about pH 7 with stirring showing the change in the carrier in a high pH environment and the release of aspirin into the high pH environment. To this material, a 1 N solution of hydrochloride acid is added slowly until the pH is lowered to the pH of the simulated gastric fluid. […]

SMILES: CC(=O)Oc1ccccc1C(=O)O [aspirin]
- aspirin partitioning between reorganized carrier and simulated gastric fluid (Example 2: 10 g powdered aspirin added after oleic acid/soybean oil carrier was cycled low pH - pH 7 - low pH): partitions between the reorganized carrier and the simulated gastric fluid
- aspirin partitioning between reorganized carrier and simulated gastric fluid (Example 3: carrier (oleic acid/soybean oil) and aspirin 1:1, cycled low pH - pH 7 - low pH): partitions between the reorganized carrier and the simulated gastric fluid
